Reference: PubChem BioAssay AID276 (DTP/NCI, 2004)
Where “and” joins values, the source holds several entries; their conditions need not be identical. Equal entries are not always repeated. Toxic doses and inconclusive results are not listed.

Test system: B6C3F1 mice, Lewis lung carcinoma iv, survival T/C
Test: NCI In Vivo Anticancer Drug Screen. Data for tumor model Lewis Lung Carcinoma (intravenous) in B6C3F1 mice
Conditions: endpoint: median survival time, schedule: Q01DX009 (ip), higher = longer survival
Summary of the method: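 Transplantable tumor in mice; compound treated vs vehicle controls; read-out survival; value = treated/control (T/C).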

[1] = dose: 1.0 mg/kg/injection, vehicle: saline
[2] = dose: 2.0 mg/kg/injection, vehicle: saline
[3] = dose: 16.0 mg/kg/injection, vehicle: saline with Tween-80
[4] = dose: 32.0 mg/kg/injection, vehicle: saline with Tween-80
[5] = dose: 4.0 mg/kg/injection, vehicle: saline with Tween-80
[6] = dose: 8.0 mg/kg/injection, vehicle: saline with Tween-80

**Q.** What does the source list for CC(C)[C@]12O[C@H]1[C@@H]1O[C@]13[C@]1(O[C@H]1C[C@H]1C4=C(C(=O)OC4)[C@@H](O)C[C@@]13C)[C@@H]2O?
**A.** T/C (dose: 25.0 micrograms/kg/injection, vehicle: saline + alcohol): 98 % of control; T/C (dose: 50.0 micrograms/kg/injection, vehicle: saline + alcohol): 110 % of control; T/C (dose: 100.0 micrograms/kg/injection, vehicle: saline + alcohol): 102 % of control; T/C (dose: 200.0 micrograms/kg/injection, vehicle: saline + alcohol): 88 % of control; T/C (dose: 400.0 micrograms/kg/injection, vehicle: saline + alcohol): 107 % of control

**Q.** CN1CCN(c2ccc([N+](=O)[O-])c3no[n+]([O-])c23)CC1 was tested. Which T/C (dose: 5.0 mg/kg/injection, vehicle: saline with Tween-80) did it give?
**A.** 120 % of control

**Q.** And the T/C (dose: 10.0 mg/kg/injection, vehicle: saline with Tween-80)?
**A.** 111 % of control

**Q.** With N[C@@H](Cc1ccc(N(CCCl)CCCl)cc1)C(=O)O as the compound, how does the T/C (dose: 0.5 mg/kg/injection, vehicle: saline) read?
**A.** 102 % of control

**Q.** What about the T/C [1] of the same compound?
**A.** 95 % of control

**Q.** And the T/C [2]?
**A.** 99 % of control

**Q.** Which results are given for CC[PH+](CC)CC[S-].CC[PH+](CC)CC[S-].[Au+].[Au+]?
**A.** T/C (dose: 2.5 mg/kg/injection, vehicle: Klucel (hydroxypropylcellulose) (HPC)): 99 % of control; T/C (dose: 5.0 mg/kg/injection, vehicle: Klucel (hydroxypropylcellulose) (HPC)): 100 % of control; T/C (dose: 10.0 mg/kg/injection, vehicle: Klucel (hydroxypropylcellulose) (HPC)): 98 % of control; T/C (dose: 20.0 mg/kg/injection, vehicle: Klucel (hydroxypropylcellulose) (HPC)): 96 % of control

**Q.** Which T/C [3] does the source give for O=c1[nH]cccc1O here?
**A.** 98 % of control

**Q.** And the T/C [4]?
**A.** 94 % of control

**Q.** And the T/C (dose: 64.0 mg/kg/injection, vehicle: saline with Tween-80)?
**A.** 103 % of control

**Q.** What about the T/C (dose: 256.0 mg/kg/injection, vehicle: saline with Tween-80) of the same compound?
**A.** 101 % of control

**Q.** How did the T/C (dose: 0.12 mg/kg/injection, vehicle: Klucel (hydroxypropylcellulose) (HPC)) turn out when COC1=C(C)C(=O)C2=C(C1=O)C1C3CC4=C(C(=O)C(OC)=C(C)C4=O)C(CNC(=O)C(C)=O)N3C(C#N)C(C2)N1C (stereo not drawn) was run?
**A.** 101 % of control

**Q.** And the T/C (dose: 0.25 mg/kg/injection, vehicle: Klucel (hydroxypropylcellulose) (HPC))?
**A.** 108 % of control

**Q.** What about the T/C (dose: 0.5 mg/kg/injection, vehicle: Klucel (hydroxypropylcellulose) (HPC)) of the same compound?
**A.** 107 % of control

**Q.** And the T/C (dose: 1.0 mg/kg/injection, vehicle: Klucel (hydroxypropylcellulose) (HPC))?
**A.** 113 % of control

**Q.** Cn1cnc([N+](=O)[O-])c1Sc1nc(N)nc2c1ncn2C1OC(CO)C(O)C1O (stereo not drawn) was tested. Which T/C (dose: 1.56 mg/kg/injection, vehicle: suspension in saline) did it give?
**A.** 105 % of control

**Q.** And the T/C (dose: 3.12 mg/kg/injection, vehicle: suspension in saline)?
**A.** 100 % of control

**Q.** What about the T/C (dose: 6.25 mg/kg/injection, vehicle: suspension in saline) of the same compound?
**A.** 105 % of control

**Q.** Which results are given for OCCO?
**A.** T/C (dose: 0.12 % in 0.5 ml injection vol, vehicle: water): 107 % of control; T/C (dose: 0.25 % in 0.5 ml injection vol, vehicle: water): 109 % of control; T/C (dose: 0.5 % in 0.5 ml injection vol, vehicle: water): 95 % of control; T/C (dose: 1.0 % in 0.5 ml injection vol, vehicle: water): 99 % of control; T/C (dose: 2.0 % in 0.5 ml injection vol, vehicle: water): 97 % of control; T/C (dose: 4.0 % in 0.5 ml injection vol, vehicle: water): 99 % of control

**Q.** What does the source list for Cc1c(N)nc(C(CC(N)=O)NCC(N)C(N)=O)nc1C(=O)NC(C(=O)NC(C)C(O)CC(=O)NC(C(=O)NC(OC1OC(C)C(N)C(O)C1O)C(O)c1nc(-c2nc(C(=O)NCCCC(N)CC(=O)NCCCNCCCCN)cs2)cs1)C(C)O)C(OC1OC(CO)C(O)C(O)C1OC1OC(CO)C(O)C(OC(N)=O)C1O)c1cnc[nH]1 (stereo not drawn)?
**A.** T/C [1]: 124 % of control; T/C [2]: 123 % of control

**Q.** What does the source list for CC(=O)C(=O)O.CC(=O)C(=O)O.[NH-]C1CCCCC1[NH-].[Pt+2] (stereo not drawn)?
**A.** T/C (dose: 3.12 mg/kg/injection, vehicle: other): 98 % of control; T/C (dose: 6.25 mg/kg/injection, vehicle: other): 109 % of control; T/C (dose: 12.5 mg/kg/injection, vehicle: other): 96 % of control

**Q.** How did the T/C (dose: 4.0 mg/kg/injection, vehicle: Klucel (hydroxypropylcellulose) (HPC)) turn out when CCCCC(=O)OCC(=O)[C@]1(O)Cc2c(O)c3c(c(O)c2[C@@H](OC2CC(NC(=O)C(F)(F)F)C(O)C(C)O2)C1)C(=O)c1c(OC)cccc1C3=O (stereo partly drawn) was run?
**A.** 100 % of control

**Q.** And the T/C [5]?
**A.** 107 % of control

**Q.** What about the T/C (dose: 8.0 mg/kg/injection, vehicle: Klucel (hydroxypropylcellulose) (HPC)) of the same compound?
**A.** 100 % of control

**Q.** And the T/C [6]?
**A.** 88 % of control

**Q.** What about the T/C (dose: 16.0 mg/kg/injection, vehicle: Klucel (hydroxypropylcellulose) (HPC)) of the same compound?
**A.** 107 % of control

**Q.** What about the T/C [3] of the same compound?
**A.** 96 % of control

**Q.** What about the T/C (dose: 32.0 mg/kg/injection, vehicle: Klucel (hydroxypropylcellulose) (HPC)) of the same compound?
**A.** 110 % of control

**Q.** What about the T/C [4] of the same compound?
**A.** 108 % of control

**Q.** And the T/C (dose: 64.0 mg/kg/injection, vehicle: Klucel (hydroxypropylcellulose) (HPC))?
**A.** 118 % of control

**Q.** What about the T/C (dose: 128.0 mg/kg/injection, vehicle: Klucel (hydroxypropylcellulose) (HPC)) of the same compound?
**A.** 120 % of control

**Q.** What does the source list for CCC1CC2CN(CCc3c([nH]c4ccccc34)C(C(=O)OC)(c3cc4c(cc3OC)N(C)C3C(O)(C(=O)OC)C(OC(C)=O)C5(CC)C=CCN6CCC43C65)C2)C1 (stereo not drawn)?
**A.** T/C (dose: 0.06 mg/kg/injection, vehicle: suspension in saline): 103 % of control; T/C (dose: 0.12 mg/kg/injection, vehicle: suspension in saline): 102 % of control; T/C (dose: 0.25 mg/kg/injection, vehicle: suspension in saline): 108 % of control; T/C (dose: 0.5 mg/kg/injection, vehicle: suspension in saline): 103 % of control; T/C (dose: 1.0 mg/kg/injection, vehicle: suspension in saline): 112 % of control; T/C (dose: 2.0 mg/kg/injection, vehicle: suspension in saline): 102 % of control

**Q.** For CC(C)(C)N1CC1CNC(=O)C(=O)NCC1CN1C(C)(C)C (stereo not drawn), which T/C (dose: 0.39 mg/kg/injection, vehicle: saline with Tween-80) is on record?
**A.** 99 % of control

**Q.** What about the T/C (dose: 0.78 mg/kg/injection, vehicle: saline with Tween-80) of the same compound?
**A.** 102 % of control and 108 % of control

**Q.** And the T/C (dose: 1.56 mg/kg/injection, vehicle: saline with Tween-80)?
**A.** 105 % of control and 106 % of control

**Q.** What about the T/C (dose: 3.12 mg/kg/injection, vehicle: saline with Tween-80) of the same compound?
**A.** 101 % of control and 122 % of control

**Q.** What about the T/C (dose: 6.25 mg/kg/injection, vehicle: saline with Tween-80) of the same compound?
**A.** 104 % of control and 111 % of control

**Q.** What about the T/C (dose: 12.5 mg/kg/injection, vehicle: saline with Tween-80) of the same compound?
**A.** 108 % of control and 123 % of control

**Q.** What does the source list for Cc1c(N)nc([C@H](CC(N)=O)NC[C@H](N)C(N)=O)nc1C(=O)N[C@H](C(=O)N[C@H](C)[C@@H](O)CC(=O)N[C@H](C(=O)NC(O[C@@H]1O[C@@H](C)[C@@H](N)[C@@H](O)[C@H]1O)C(O)c1nc(-c2nc(C(=O)NCCCCN)cs2)cs1)[C@@H](C)O)[C@@H](O[C@@H]1O[C@@H](CO)[C@@H](O)[C@H](O)[C@@H]1O[C@H]1O[C@H](CO)[C@@H](O)[C@H](OC(N)=O)[C@@H]1O)c1c[nH]cn1 (stereo partly drawn)?
**A.** T/C [2]: 123 % of control; T/C (dose: 8.0 mg/kg/injection, vehicle: saline): 176 % of control

**Q.** For CO[C@H](/C(C)=C/C=C/C(C)=C/c1coc(C)n1)[C@H](C)[C@H]1C[C@@H](O)[C@@]2(C)O[C@H]2/C=C/[C@@H](C)[C@@H]2C[C@@H](CC(=O)O2)C[C@H]2O[C@@H]2C(=O)O1, which T/C (dose: 20.0 micrograms/kg/injection, vehicle: Klucel (hydroxypropylcellulose) (HPC)) is on record?
**A.** 96 % of control

**Q.** And the T/C (dose: 40.0 micrograms/kg/injection, vehicle: Klucel (hydroxypropylcellulose) (HPC))?
**A.** 103 % of control

**Q.** What about the T/C (dose: 80.0 micrograms/kg/injection, vehicle: Klucel (hydroxypropylcellulose) (HPC)) of the same compound?
**A.** 105 % of control

**Q.** What does the source list for CN(C)CCN1C(=O)c2cccc3cc(N)cc(c23)C1=O?
**A.** T/C (dose: 1.0 mg/kg/injection, vehicle: saline with Tween-80): 115 % of control; T/C (dose: 2.0 mg/kg/injection, vehicle: saline with Tween-80): 106 % of control; T/C [5]: 111 % of control; T/C [6]: 119 % of control

**Q.** Which T/C [2] does the source give for O=NN(CCCl)C(=O)NC1OC(CO)C(O)C(O)C1O (stereo not drawn) here?
**A.** 121 % of control
